Like-named read-outs stand apart in the source and are kept apart here.
Target: T1, human TSHR (Homo sapiens, UniProt P16473)
T1 construct: expressed in transfected cells
Assay: Homogeneous Time Resolved Fluorescence (HTRF) cAMP assay, TSHR cell line
Assay type: cell-based
Conditions: for Maximum Activity compared to TSH: 100% activity = response of 30 mU/ml TSH, 0% = DMSO control, in %; for AC50: TSHR cell line, 30 minute incubation; for Emax: read-out: Maximum Activity compared to TSH, 100% activity = response of 30 mU/ml TSH, 0% = DMSO control; call rule not given here
Text: Generation of Stable Cell-Lines Expressing TSHR, LHCGR or FSHR.
cDNA for human TSHR was amplified by PCR from hTSHR-pSVL (1) and inserted into the pcDNA3.1(−)/hygromycin vector using restriction sites XhoI and BamHI. cDNA for human LHCGR was amplified by PCR from hLHR-pGS5 (2) and was inserted into the pcDNA3.1(+)/hygromycin vector using restriction sites BamHI and XhoI. The FSHR cDNA in pcDNA3.1 was obtained from the Missouri S&T cDNA Resource Center (www.cDNA.org) and was subcloned into the pcDNA3.1(−)/hygromycin vector. Constructs were confirmed by sequencing (MWG Biotech). HEK-EM 293 cells were transfected with the cDNA of TSHR, LHCGR or FSHR using FuGENE 6 Transfection reagent (Roche Diagnostics) according to the manufacturer's protocol. Two days after transfection cells were passaged and grown in Dulbecco's modified Eagle's Medium (DMEM) supplemented with 10% fetal bovine serum, 100 units/ml penicillin and 10 μg/ml streptomycin (Life Technologies Inc.) and with hygromycin (250 μg/ml) as a selection marker. After 7 to 10 days hygromycin-resistant clones were selected, and after a few days of further growth submitted for a cAMP assay to identify clones that stably express the appropriate receptor. Cell Culture. Cells stably expressing TSHR, LHCGR or FSHR and parental HEK 293 cells were maintained in DMEM medium containing 10% FBS, 100 units/ml Penicillin, 100 μg/ml Streptomycin, at 37° C. in 5% CO2. For the cells lines stably expressing TSHR, LHCGR or FSHR, additional 250 μg/ml Hygromycin was added during the cell culture. The cells were seeded at a density of 3 to 4 million cells in a T175 flask containing 35 ml of media and were allowed to grow for 3 days to reach 80-90% confluence. A flask of HEK 293 cells at this density generally yielded 30 million cells total. Homogeneous Time Resolved Fluorescence (HTRF) cAMP Assay. Compounds were assayed using a HTRF cAMP detection kit (Cisbio, Bedford, Mass.) on both TSHR cell line and parental cell line. Briefly, 750 cells were plated in 2.5 μl/well of complete media (DMEM containing 10% FCS) in 1536 well solid bottom white plates and 20 nl/well compound in DMSO solution or controls was added. Following 30 minute incubation at room temperature, 2.5 μl/well of labeled d2 cAMP and 2.5 μl/well of anti-cAMP antibody (both diluted 1:20 in lysis buffer) were added to each well using a flying reagent dispenser (Aurora Discovery, San Diego). Plates were measured using the Envision plate reader (PerkinElmer, Boston, Mass.) with excitation at 330 nm and emissions of 615 nm and 660 nm. Compound Preparation. […] Data Analysis. […] The EC50 values of compounds were calculated from the concentration-response curves by nonlinear regression analysis using Prism software (GraphPad Software, San Diego, Calif.). Confirmatory cAMP Assay and Test for Selectivity Towards TSHR 50,000 cells/well were plated in complete media (DMEM containing 10% FCS) in 96 well plates. […] Following aspiration of the medium after incubation with compounds, cells were lysed using lysis buffer of the cAMP-Screen Direct™ System (Applied Biosystems, Cat # CSD200). The cAMP content of the cell lysate was determined using the manufacturer's protocol. […] Below is a List of Compounds that were Assayed via the Homogeneous Time Resolved Fluorescence (HTRF) cAMP Assay.

T1 sequence (P16473 21-764): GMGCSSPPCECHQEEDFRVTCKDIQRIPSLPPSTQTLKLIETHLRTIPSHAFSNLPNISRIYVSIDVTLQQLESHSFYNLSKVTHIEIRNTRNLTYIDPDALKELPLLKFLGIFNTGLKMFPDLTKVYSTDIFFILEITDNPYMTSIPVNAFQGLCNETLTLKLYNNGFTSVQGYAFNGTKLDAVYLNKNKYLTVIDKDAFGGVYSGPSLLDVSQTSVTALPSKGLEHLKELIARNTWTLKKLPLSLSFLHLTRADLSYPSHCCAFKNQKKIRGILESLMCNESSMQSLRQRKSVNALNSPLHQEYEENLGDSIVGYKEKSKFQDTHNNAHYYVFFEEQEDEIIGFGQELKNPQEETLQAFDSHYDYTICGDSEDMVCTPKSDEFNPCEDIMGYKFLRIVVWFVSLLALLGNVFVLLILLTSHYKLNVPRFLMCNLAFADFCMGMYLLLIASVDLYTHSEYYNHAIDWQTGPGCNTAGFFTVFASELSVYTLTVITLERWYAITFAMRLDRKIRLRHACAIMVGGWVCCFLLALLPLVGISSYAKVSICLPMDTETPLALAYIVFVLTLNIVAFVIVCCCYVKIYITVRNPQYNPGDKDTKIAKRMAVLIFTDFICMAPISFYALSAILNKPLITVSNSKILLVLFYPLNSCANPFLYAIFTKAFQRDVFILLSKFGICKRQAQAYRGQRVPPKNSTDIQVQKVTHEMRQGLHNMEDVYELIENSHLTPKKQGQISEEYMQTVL

Compound: COc1ccc(C2Nc3ccccc3C(=O)N2Cc2ccco2)cc1COc1ccc(NC(C)=O)cc1 (centres unmarked) [Structure 89]
- Maximum Activity compared to TSH: 129.12
- AC50 (HTRF cAMP, read-out: AC50): 25.1 µM

Compound: COc1ccc(CN(Cc2ccccc2)C(=O)c2ccc(OC)cc2O)cc1 [Structure 124]
- Maximum Activity compared to TSH: 62.73
- AC50 (HTRF cAMP, read-out: AC50): 31.6 µM

Compound: COc1ccc(CN(Cc2ccccc2)C(=O)C2CC2)cc1COc1ccc(NC(C)=O)cc1 [Structure 68]
- AC50 (HTRF cAMP, read-out: AC50): 22.4 µM
- Emax: 74.8%

Compound: COc1ccc(C(=O)N(Cc2ccccc2)Cc2ccccc2)c(O)c1 [Structure 131]
- Maximum Activity compared to TSH: 99.01
- AC50 (HTRF cAMP, read-out: AC50): 35.5 µM

Compound: COc1ccc(CNc2ccccc2C(=O)NCc2ccccc2)cc1COc1ccc(NC(C)=O)cc1 [Structure 109]
- AC50 (HTRF cAMP, read-out: AC50): 17.8 µM
- Emax: 47.5%

Compound: COc1ccc(CN(Cc2ccccc2)C(=O)COC(C)=O)cc1COc1ccc(NC(C)=O)cc1 [Structure 130]
- Maximum Activity compared to TSH: 53.70
- AC50 (HTRF cAMP, read-out: AC50): 50.1 µM

Compound: COc1ccc(C2Nc3ccccc3C(=O)N2Cc2ccccc2)cc1COc1ccc(C#N)cc1 (centres unmarked) [Structure 250]
- AC50 (HTRF cAMP): inactive

Compound: COc1ccc(CN(Cc2ccccc2)C(=O)c2ccc(O)cc2)cc1COc1ccc(NC(C)=O)cc1 [Structure 104]
- Maximum Activity compared to TSH: 122.31
- AC50 (HTRF cAMP, read-out: AC50): 39.8 µM

Compound: COc1ccc(C2Nc3ccccc3C(=O)N2Cc2cccc(-c3ccccc3)c2)cc1COc1ccc(NC(C)=O)cc1 (centres unmarked) [Structure 13]
- Maximum Activity compared to TSH: 103.29
- AC50 (HTRF cAMP, read-out: AC50): 2.24 µM

Compound: COc1ccc(C2Nc3cccc(OC)c3C(=O)N2Cc2ccccc2)cc1COc1ccc(NC(C)=O)cc1 (centres unmarked) [Structure 235]
- AC50 (HTRF cAMP): inactive

Compound: COc1ccc(C2Nc3ccccc3C(=O)N2Cc2ccccc2)cc1COc1ccc(C#N)cc1 (centres unmarked) [Structure 170]
- AC50 (HTRF cAMP): inactive

Compound: COc1ccc(C2Nc3ccccc3C(=O)N2Cc2cccc(C(F)(F)F)c2)cc1COc1ccc(NC(C)=O)cc1 (centres unmarked) [Structure 60]
- Maximum Activity compared to TSH: 189.97
- AC50 (HTRF cAMP, read-out: AC50): 6.31 µM

Compound: COc1ccc(C2Nc3ccccc3C(=O)N2C2CCCC2)cc1COc1ccc(NC(C)=O)cc1 (centres unmarked) [Structure 138]
- AC50 (HTRF cAMP, read-out: AC50): 20 µM
- Emax: 31.5%

Compound: COc1ccc(-c2nc3ccc(NC(=O)COC(C)=O)cc3c(=O)n2Cc2ccccc2)cc1COc1ccc(NC(C)=O)cc1 [Structure 261]
- AC50 (HTRF cAMP): inactive

Compound: COc1ccc(C2Oc3ccccc3C(=O)N2Cc2ccccc2)cc1COc1ccc(NC(C)=O)cc1 (centres unmarked) [Structure 78]
- Maximum Activity compared to TSH: 66.16
- AC50 (HTRF cAMP, read-out: AC50): 8.91 µM

Compound: COc1ccc(C2Nc3ccccc3C(=O)N2Cc2cccc(Cl)c2)cc1COc1ccc(NC(C)=O)cc1 (centres unmarked) [Structure 50]
- Maximum Activity compared to TSH: 70.37
- AC50 (HTRF cAMP, read-out: AC50): 2.82 µM

Compound: COc1ccc(C2Nc3ccccc3C(=O)N2Cc2ccc(-c3ccccc3)cc2)cc1COc1ccc(NC(C)=O)cc1 (centres unmarked) [Structure 74]
- AC50 (HTRF cAMP, read-out: AC50): 2.82 µM
- Emax: 36%

Compound: COc1ccc(-c2nc3ccccc3n2Cc2ccccc2)cc1COc1ccc(NC(C)=O)cc1 [Structure 179]
- AC50 (HTRF cAMP): inactive

Compound: COc1ccc(C2Nc3ccc(NC(C)=O)cc3C(=O)N2Cc2ccccc2)cc1COc1ccc(NC(C)=O)cc1 (centres unmarked) [Structure 105]
- AC50 (HTRF cAMP, read-out: AC50): 17.8 µM
- Emax: 126%

Compound: COc1ccc(-c2nc3ccccc3c(=O)n2Cc2ccccc2)cc1COc1ccc(NC(C)=O)cc1 [Structure 64]
- Maximum Activity compared to TSH: 70.53
- AC50 (HTRF cAMP, read-out: AC50): 7.94 µM

Compound: COc1ccc(-c2nc3ccccc3c(=O)n2Cc2ccccc2)cc1COc1ccc(NC(C)=O)cc1 [Structure 52]
- Maximum Activity compared to TSH: 104.78
- AC50 (HTRF cAMP, read-out: AC50): 8.91 µM

Compound: COc1ccc(C2Nc3ccccc3C(=O)N2Cc2ccccc2)cc1COc1ccc(NC(C)=O)cc1 (single isomer, unassigned) [Structure 2]
- Maximum Activity compared to TSH: 217.29
- AC50 (AC50, HTRF cAMP): 11.2 µM

Compound: COc1ccc(CN(Cc2ccccc2)C(=O)c2ccc(NC(C)=O)cc2)cc1COc1ccc(NC(C)=O)cc1 [Structure 166]
- AC50 (HTRF cAMP): inactive

Compound: COc1ccc(CN(Cc2ccccc2)C(=O)c2ccno2)cc1COc1ccc(NC(C)=O)cc1 [Structure 248]
- AC50 (HTRF cAMP, read-out: AC50): 70.8 µM
- Emax: 32%

Compound: COc1ccc(C2N(Cc3ccccc3)C(=O)c3ccccc3N2C)cc1COc1ccc(NC(C)=O)cc1 (centres unmarked) [Structure 84]
- Maximum Activity compared to TSH: 47.53
- AC50 (HTRF cAMP, read-out: AC50): 7.94 µM

Compound: COc1ccc(CN(Cc2ccccc2)C(=O)c2ccccc2O)cc1 [Structure 291]
- Maximum Activity compared to TSH: 38.00
- AC50 (HTRF cAMP, read-out: AC50): 35.5 µM

Compound: COc1ccc(C2Nc3ccccc3C(=O)N2CCCN(C)C)cc1COc1ccc(NC(C)=O)cc1 (centres unmarked) [Structure 186]
- AC50 (HTRF cAMP): inactive

Compound: COc1ccc(CN(Cc2ccccc2)C(=O)c2ccccc2)cc1COc1ccc(NC(C)=O)cc1 [Structure 5]
- Maximum Activity compared to TSH: 174.77
- AC50 (HTRF cAMP, read-out: AC50): 15.8 µM

Compound: COc1ccc(CN2C(=O)c3ccccc3NC2c2ccc(OC)c(COc3ccc(NC(C)=O)cc3)c2)cc1 (centres unmarked) [Structure 30]
- Maximum Activity compared to TSH: 63.65
- AC50 (HTRF cAMP, read-out: AC50): 3.16 µM

Compound: COc1ccc(C2Nc3ccccc3C(=O)N2Cc2ccco2)cc1COc1ccc([N+](=O)[O-])cc1 (centres unmarked) [Structure 188]
- AC50 (HTRF cAMP): inactive

Compound: COc1ccc(C2Nc3ccccc3C(=O)N2Cc2ccncc2)cc1COc1ccc(NC(C)=O)cc1 (centres unmarked) [Structure 125]
- AC50 (HTRF cAMP, read-out: AC50): 39.8 µM
- Emax: 56.4%

Compound: COc1ccc(C2Nc3ccccc3C(=O)N2Cc2ccccc2)cc1COc1ccc(NC(C)=O)cc1 (single isomer, unassigned) [Structure 26]
- Maximum Activity compared to TSH: 217.05
- AC50 (AC50, HTRF cAMP): 10 µM

Compound: COc1ccc(-c2nc3ccc(NC(=O)CO)cc3c(=O)n2Cc2cccc(Cl)c2)cc1COc1ccc(NC(C)=O)cc1 [Structure 80]
- AC50 (HTRF cAMP, read-out: AC50): 22.4 µM
- Emax: 40%

Compound: COc1ccc(-c2nc3ccc(Cl)cc3c(=O)n2Cc2ccccc2)cc1COc1ccc(NC(C)=O)cc1 [Structure 206]
- AC50 (HTRF cAMP): inactive

Compound: COc1ccc(CN(Cc2ccccc2)C(=O)c2cccc(C#N)c2)cc1COc1ccc(NC(C)=O)cc1 [Structure 75]
- Maximum Activity compared to TSH: 70.09
- AC50 (HTRF cAMP, read-out: AC50): 20 µM

Compound: COc1ccc(C(=O)N(Cc2ccccc2)Cc2cccs2)c(O)c1 [Structure 92]
- Maximum Activity compared to TSH: 133.48
- AC50 (HTRF cAMP, read-out: AC50): 31.6 µM

Compound: O=C1CC(c2ccco2)CC2=C1C(c1ccncc1)n1nc(C(F)(F)F)nc1N2 (centres unmarked) [Structure 183]
- AC50 (HTRF cAMP): inactive

Compound: O=C1CC(c2ccco2)CC2=C1C(c1ccc(O)cc1)n1nc(C(F)(F)F)nc1N2 (centres unmarked) [Structure 174]
- AC50 (HTRF cAMP): inactive

Compound: Nc1ccccc1C(=O)NCc1ccco1 [Structure 153]
- AC50 (HTRF cAMP): inactive

Compound: COc1ccc(CN(Cc2ccccc2)C(=O)Nc2ccccc2)cc1COc1ccc(NC(C)=O)cc1 [Structure 215]
- Maximum Activity compared to TSH: 20.00

Compound: COc1ccc(C(=O)N(Cc2ccccc2)Cc2ccc(OC)c(COc3ccc(NC(C)=O)cc3)c2)c(O)c1 [Structure 168]
- AC50 (HTRF cAMP): inactive

Compound: COc1ccc(C2Nc3ccccc3C(=O)N2Cc2ccccc2)cc1COc1ccc(NC(C)=O)cc1 (single isomer, unassigned) [Structure 51]
- Maximum Activity compared to TSH: 174.87
- AC50 (AC50, HTRF cAMP): 15.8 µM

Compound: COc1ccc(C2Nc3ccccc3C(=O)N2Cc2cccnc2)cc1COc1ccc(NC(C)=O)cc1 (centres unmarked) [Structure 111]
- Maximum Activity compared to TSH: 98.46
- AC50 (HTRF cAMP, read-out: AC50): 35.5 µM

Compound: COc1ccc(C2Nc3ccccc3C(=O)N2Cc2cccc3ccccc23)cc1COc1ccc(NC(C)=O)cc1 (centres unmarked) [Structure 288]
- Maximum Activity compared to TSH: 20.50
- AC50 (HTRF cAMP, read-out: AC50): 2.24 µM

Reference: patent US9458141B2, “Low molecular weight thyroid stimulating hormone receptor (TSHR) agonists” (The United States of America, as represented by the …, priority 2008, dated 2016)
